Test results published in EPA's ToxRefDB 2.

How the values were obtained:
rat [1] = settings: Combined chronic toxicity/carcinogenicity, sprague dawley, Dermal, Topical, dose end: 101 week, group: systemic
hamster = settings: Subchronic oral toxicity in rodents, golden syrian, Feed, dose end: 90 day, group: systemic, systemic / in life observation / body weight / body weight + systemic / in life observation / body weight / body weight gain + systemic / in…
rat [2] = settings: Combined chronic toxicity/carcinogenicity, sprague dawley, Oral, Feed, dose end: 104 week, group: systemic
rat [3] = settings: Prenatal developmental toxicity study, sprague dawley, Oral, Gavage/Intubation, dose end: 20 GD
rat [4] = settings: Subchronic oral toxicity in rodents, wistar, Feed, dose end: 90 day, group: systemic, systemic / clinical chemistry / cholesterol / cholesterol + systemic / pathology microscopic / kidney / degeneration + systemic / pathology …
dog [5] = settings: Subchronic oral toxicity in nonrodent, beagle, Capsule, dose end: 13 week, group: systemic, systemic / clinical chemistry / alanine aminotransferase (alt/sgpt) / alanine aminotransferase (alt/sgpt) + systemic / clinical chemistry / …
dog [6] = settings: Chronic toxicity, beagle, Oral, Capsule, dose end: 55 week, group: systemic
rat [7] = settings: Prenatal developmental toxicity study, sprague dawley, Oral, Gavage/Intubation, dose end: 20 GD; remark: listed apart in the source
rat [8] = settings: Multigenerational reproductive toxicity study, wistar, Oral, Feed, dose end: 2 generation
rabbit [9] = settings: Prenatal developmental toxicity study, new zealand white, Oral, Gavage/Intubation, dose end: 20 GD
rat [10] = settings: Combined chronic toxicity/carcinogenicity, wistar, Oral, Feed, dose end: 106 week, group: systemic
rabbit [11] = settings: Prenatal developmental toxicity study, new zealand white, Oral, Gavage/Intubation, dose end: 28 GD
[12] = systemic / pathology microscopic / mammary gland / fibroadenoma + systemic / in life observation / body weight / body weight + systemic / in…
[13] = systemic / pathology microscopic / mammary gland / fibroadenoma + systemic / pathology microscopic / pituitary gland / acidophil adenoma + …
[14] = systemic / in life observation / clinical signs / fur (altered appearance)
[15] = group: developmental, developmental / developmental malformation / bone / incomplete ossification
[16] = group: maternal, reproductive / reproductive performance / postimplantation loss / postimplantation loss + systemic / in life observation / body weight / …
[17] = systemic / pathology microscopic / adrenal gland / vacuolization + systemic / clinical chemistry / [other] / [other] + systemic / clinical …
[18] = group: developmental, systemic / in life observation / body weight / fetal weight + developmental / developmental malformation / bone / absent + developmental / …
[19] = group: maternal, reproductive / reproductive performance / implantations / implantations
[20] = group: maternal, reproductive / offspring survival early / litter size / litter size
[21] = group: parental, systemic / organ weight / epididymis / absolute + systemic / organ weight / epididymis / relative to body weight
[22] = group: parental, systemic / organ weight / epididymis / absolute + systemic / organ weight / epididymis / relative to body weight + systemic / organ weight…
[23] = group: reproductive, reproductive / reproductive performance / gestational length / gestational length + reproductive / reproductive performance / implantations…
[24] = group: developmental, developmental / developmental malformation / bone / full supernumerary + developmental / developmental malformation / bone / incomplete …
[25] = group: maternal, reproductive / reproductive performance / aborted / aborted + systemic / in life observation / body weight / body weight gain + systemic / …
[26] = systemic / in life observation / body weight / body weight gain
[27] = group: developmental, developmental / developmental malformation / bone / incomplete ossification + developmental / developmental malformation / eye / [other] + …
[28] = group: maternal, reproductive / reproductive performance / aborted / aborted + reproductive / reproductive performance / postimplantation loss / …

CC/C(=C(\c1ccc(O)cc1)c1ccc(OCCN(C)C)cc1)c1ccccc1 [4-Hydroxytamoxifen]
LEL (rat [1]; [12]): 0.02 mg/kg/day
NEL (rat [1]; [12]): < 0.02 mg/kg/day
LOAEL (rat [1]; [13]): > 1 mg/kg/day
NOAEL (rat [1]; [13]): ≥ 1 mg/kg/day

CCCCOC(=O)C(C)Oc1ccc(Oc2ccc(C(F)(F)F)cn2)cc1 (stereo unspecified) [Fluazifop-butyl]
LEL (hamster): 292 mg/kg/day
LOAEL (hamster): 292 mg/kg/day
NEL (hamster): 78.3 mg/kg/day
NOAEL (hamster): 78.3 mg/kg/day
LEL (rat [2]; [14]): 0.1 mg/kg/day
NEL (rat [2]; [14]): < 0.1 mg/kg/day
LOAEL (rat [2]; systemic / in life observation / mortality / mortality): 3 mg/kg/day
NOAEL (rat [2]; systemic / in life observation / mortality / mortality + systemic / in life observation / clinical signs / fur (altered appearance) + …): 1 mg/kg/day
LEL (rat [3]; [15]): 10 mg/kg/day
LOAEL (rat [3]; [15]): 10 mg/kg/day
NEL (rat [3]; [15]): < 10 mg/kg/day
NOAEL (rat [3]; [15]): < 10 mg/kg/day
LEL (rat [3]; [16]): 200 mg/kg/day
LOAEL (rat [3]; [16]): > 200 mg/kg/day
NEL (rat [3]; [16]): 50 mg/kg/day
NOAEL (rat [3]; [16]): ≥ 200 mg/kg/day
LEL (rat [4]): 7.1 mg/kg/day
LOAEL (rat [4]): 7.1 mg/kg/day
NEL (rat [4]): 0.7 mg/kg/day
NOAEL (rat [4]): 0.7 mg/kg/day
LEL (dog [5]): 250 mg/kg/day
LOAEL (dog [5]): 250 mg/kg/day
NEL (dog [5]): 25 mg/kg/day
NOAEL (dog [5]): 25 mg/kg/day
NEL (dog [6]; [17]): 5 mg/kg/day
NOAEL (dog [6]; [17]): 5 mg/kg/day
LOAEL (dog [6]; systemic / pathology microscopic / adrenal gland / vacuolization + systemic / pathology microscopic / thymus / involution): 25 mg/kg/day
LEL (dog [6]; systemic / pathology microscopic / adrenal gland / vacuolization + systemic / pathology microscopic / thymus / involution + systemic / …): 25 mg/kg/day
LOAEL (rat [7]; group: developmental, systemic / in life observation / body weight / fetal weight): 5 mg/kg/day
LEL (rat [7]; [18]): 5 mg/kg/day
NEL (rat [7]; [18]): 1 mg/kg/day
NOAEL (rat [7]; [18]): 1 mg/kg/day
LEL (rat [7]; [19]): 10 mg/kg/day
LOAEL (rat [7]; [19]): > 200 mg/kg/day
NEL (rat [7]; [19]): 5 mg/kg/day
NOAEL (rat [7]; [19]): ≥ 200 mg/kg/day
LEL (rat [8]; [20]): 17.5 mg/kg/day
LOAEL (rat [8]; [20]): 17.5 mg/kg/day
NEL (rat [8]; [20]): 5.8 mg/kg/day
NOAEL (rat [8]; [20]): 5.8 mg/kg/day
LOAEL (rat [8]; group: offspring, reproductive / offspring survival early / litter size / litter size): 17.5 mg/kg/day
NOAEL (rat [8]; group: offspring, reproductive / offspring survival early / litter size / litter size + systemic / pathology microscopic / kidney / hydronephrosis): 5.8 mg/kg/day
LEL (rat [8]; group: offspring, systemic / pathology microscopic / kidney / hydronephrosis): 7.1 mg/kg/day
NEL (rat [8]; group: offspring, systemic / pathology microscopic / kidney / hydronephrosis + developmental / offspring survival late / viability index / viability index + …): 0.88 mg/kg/day
LEL (rat [8]; [21]): 0.74 mg/kg/day
NEL (rat [8]; [21]): < 0.74 mg/kg/day
LOAEL (rat [8]; [22]): 5.8 mg/kg/day
NOAEL (rat [8]; [22]): 0.74 mg/kg/day
NEL (rat [8]; group: reproductive, reproductive / offspring survival early / birth index / live birth index + reproductive / reproductive performance / fertility / fertility…): 0.88 mg/kg/day
LEL (rat [8]; group: reproductive, reproductive / reproductive performance / gestational length / gestational length): 7.1 mg/kg/day
LOAEL (rat [8]; [23]): > 21.7 mg/kg/day
NOAEL (rat [8]; [23]): ≥ 21.7 mg/kg/day
LEL (rabbit [9]; [24]): 50 mg/kg/day
LOAEL (rabbit [9]; [24]): 50 mg/kg/day
NEL (rabbit [9]; [24]): 10 mg/kg/day
NOAEL (rabbit [9]; [24]): 10 mg/kg/day
LEL (rabbit [9]; [25]): 50 mg/kg/day
LOAEL (rabbit [9]; [25]): 50 mg/kg/day
NEL (rabbit [9]; [25]): 10 mg/kg/day
NOAEL (rabbit [9]; [25]): 10 mg/kg/day
LEL (rat [10]; [26]): 0.127 mg/kg/day
NEL (rat [10]; [26]): < 0.127 mg/kg/day
LOAEL (rat [10]; systemic / pathology microscopic / kidney / nephropathy + systemic / in life observation / mortality / mortality): 4.15 mg/kg/day
NOAEL (rat [10]; systemic / pathology microscopic / kidney / nephropathy + systemic / organ weight / kidney / absolute + systemic / organ weight / kidney / …): 0.51 mg/kg/day
LEL (rabbit [11]; [27]): 90 mg/kg/day
LOAEL (rabbit [11]; [27]): 90 mg/kg/day
NEL (rabbit [11]; [27]): 30 mg/kg/day
NOAEL (rabbit [11]; [27]): 30 mg/kg/day
LEL (rabbit [11]; [28]): 90 mg/kg/day
LOAEL (rabbit [11]; [28]): 90 mg/kg/day
NEL (rabbit [11]; [28]): 30 mg/kg/day
NOAEL (rabbit [11]; [28]): 30 mg/kg/day
